# Assay results as given in patent US20240116985A1, “STAPLED PEPTIDES AND METHODS THEREOF” (priority 2020, published 2024).
# Molecular target: T1, full-length beta-Catenin (Uniprot ID P35222) (Homo sapiens, UniProt P35222)
# T1 construct: 10 nM full-length beta-Catenin (Uniprot ID P35222)
# T1 sequence (P35222 1-781): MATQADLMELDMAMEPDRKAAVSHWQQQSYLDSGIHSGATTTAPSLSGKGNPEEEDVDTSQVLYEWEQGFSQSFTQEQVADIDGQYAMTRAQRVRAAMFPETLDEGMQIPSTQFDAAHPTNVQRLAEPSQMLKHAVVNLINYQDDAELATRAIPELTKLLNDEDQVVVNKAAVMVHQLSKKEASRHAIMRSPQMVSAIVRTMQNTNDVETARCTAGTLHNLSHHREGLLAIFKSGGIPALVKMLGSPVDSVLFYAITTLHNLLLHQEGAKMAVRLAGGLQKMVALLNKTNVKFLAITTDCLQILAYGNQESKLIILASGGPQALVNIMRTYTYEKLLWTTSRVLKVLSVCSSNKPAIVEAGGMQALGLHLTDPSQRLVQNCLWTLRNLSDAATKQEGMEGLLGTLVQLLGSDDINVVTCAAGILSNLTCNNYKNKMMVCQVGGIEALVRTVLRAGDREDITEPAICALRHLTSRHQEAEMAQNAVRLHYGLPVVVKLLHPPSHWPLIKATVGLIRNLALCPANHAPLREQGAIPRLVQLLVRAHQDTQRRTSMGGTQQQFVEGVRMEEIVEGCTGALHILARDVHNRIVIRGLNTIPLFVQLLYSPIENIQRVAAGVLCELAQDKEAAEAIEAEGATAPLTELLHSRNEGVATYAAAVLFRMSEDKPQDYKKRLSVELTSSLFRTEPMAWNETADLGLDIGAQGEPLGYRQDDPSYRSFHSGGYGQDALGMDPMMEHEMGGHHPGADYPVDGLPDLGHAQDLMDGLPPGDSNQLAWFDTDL
# Test: Fluorescence polarization IC50 (beta-catenin / 5FAM-TCF4 10-53 competition)
# Assay type: binding
# Conditions: fluorescence polarization; read-out: beta-Catenin FP IC50
row,Structure (SMILES),IC50
1,"CC(=O)N1CCC[C@]12CC=CCCCC1(CCCC=CCCCCCC[C@@](C)(C(=O)N[C@@H](Cc3ccsc3)C(=O)N[C@@H](Cc3csc4ccccc34)C(=O)N[C@@H](CCC(N)=O)C(N)=O)NC(=O)[C@H](CC(N)=O)NC(=O)[C@H](Cc3ccccc3)NC(=O)[C@H](C)NC(=O)[C@H](C)NC(=O)[C@H](CC(=O)O)NC(=O)[C@H](CC(=O)O)NC1=O)NC(=O)[C@H](CC(C)(C)C)NC(=O)[C@H](CC(=O)O)N(C)C2=O (stereo partly drawn) [I-1165, Ac-PL3-NMeD-Npg-B5-Asp-Asp-Ala-Ala-Phe-Asn-S8-3Thi-BztA-Gln-NH2]",722 nM
2,"CC(=O)N1CCC[C@]12CC=CCCCC1(CCCC=CCCCOC(=O)N3CC[C@@](C(=O)N[C@@H](Cc4ccsc4)C(=O)N[C@@H](Cc4csc5ccccc45)C(=O)N[C@@H](CCC(N)=O)C(N)=O)(C3)NC(=O)[C@H](CC(N)=O)NC(=O)[C@H](Cc3ccccc3)NC(=O)[C@H](C)NC(=O)[C@H](C)NC(=O)[C@H](CC(=O)O)NC(=O)[C@H](CC(C)C)NC1=O)NC(=O)[C@H](CC(C)(C)C)NC(=O)[C@H](CC(=O)O)NC2=O (stereo partly drawn) [I-1212, Ac-PL3-Asp-Npg-B5-Leu-Asp-Ala-Ala-Phe-Asn-PyrS2-3Thi-BztA-Gln-NH2]",8660 nM
3,"CC(=O)N1CCC[C@]12CC=CCCCC1(CCCC=CCCCOC(=O)N3CC[C@@](C(=O)N[C@@H](Cc4ccsc4)C(=O)N[C@@H](Cc4csc5ccccc45)C(=O)N[C@@H](CCC(N)=O)C(N)=O)(C3)NC(=O)[C@H](CC(C)C)NC(=O)[C@H](Cc3ccccc3)NC(=O)[C@H](C)NC(=O)[C@H](C)NC(=O)[C@H](CC(=O)O)NC(=O)[C@H](CC(=O)O)NC1=O)NC(=O)[C@H](CC(C)(C)C)NC(=O)[C@H](CO)NC2=O (stereo partly drawn) [I-1223, Ac-PL3-Ser-Npg-B5-Asp-Asp-Ala-Ala-Phe-Leu-PyrS2-3Thi-BztA-Gln-NH2]",550 nM
4,"CC(=O)N1CCC[C@]12CC=CCCCC1(CCCC=CCCCOC(=O)N3CC[C@@](C(=O)N[C@@H](Cc4ccsc4)C(=O)N[C@@H](Cc4csc5ccccc45)C(=O)N[C@@H](CCC(N)=O)C(N)=O)(C3)NC(=O)[C@H](CC(N)=O)NC(=O)[C@H](Cc3ccccc3)NC(=O)[C@H](C)NC(=O)[C@H](C)NC(=O)[C@H](CC(=O)O)NC(=O)[C@H](CC(=O)O)NC1=O)NC(=O)[C@H](CC(C)(C)C)NC(=O)[C@H](CC(C)C)NC2=O (stereo partly drawn) [I-1226, Ac-PL3-Leu-Npg-B5-Asp-Asp-Ala-Ala-Phe-Asn-PyrS2-3Thi-BztA-Gln-NH2]",559 nM
5,"CC(=O)N1CCC[C@]12CC=CCCCC1(CCCC=CCCCOC(=O)N3CC[C@@](C(=O)N[C@@H](Cc4ccccc4Cl)C(=O)N[C@@H](Cc4csc5ccccc45)C(=O)N[C@H](CO)CC(C)C)(C3)NC(=O)[C@H](CC(C)C)NC(=O)[C@H](Cc3ccccc3)NC(=O)[C@H](C)NC(=O)[C@H](C)NC(=O)[C@H](CC(=O)O)NC(=O)[C@H](CC(=O)O)NC1=O)NC(=O)[C@H](CC(C)(C)C)NC(=O)[C@H](CC(=O)O)NC2=O (stereo partly drawn) [I-1251, Ac-PL3-Asp-Npg-B5-Asp-Asp-Ala-Ala-Phe-Leu-PyrS2-2C1F-BztA-Leuo1]",1940 nM
6,"CCCCCCCC(=O)N1CCC[C@]12CC=CCCCC1(CCCC=CCCCCCC[C@@](C)(C(=O)N[C@@H](Cc3ccccc3Cl)C(=O)N[C@@H](Cc3csc4ccccc34)C(=O)N[C@@H](CCC(N)=O)C(N)=O)NC(=O)[C@H]([C@@H](C)O)NC(=O)[C@H](Cc3ccccc3)NC(=O)[C@H](C)NC(=O)[C@H](C)NC(=O)[C@H](CC(=O)O)NC(=O)[C@H](CC(=O)O)NC1=O)NC(=O)[C@H](CC(C)(C)C)NC(=O)[C@H](CC(=O)O)NC2=O (stereo partly drawn) [I-1254, Oct-PL3-Asp-Npg-B5-Asp-Asp-Ala-Ala-Phe-Thr-S8-2C1F-BztA-Gln-NH2]",530 nM
7,"CC(=O)N1CCC[C@]12CC=CCCCC1(CCCC=CCCOC(=O)N3CC[C@@](C(=O)N[C@@H](Cc4ccccc4Cl)C(=O)N[C@@H](Cc4csc5ccccc45)C(=O)N[C@@H](C(N)=O)[C@H](C)O)(C3)NC(=O)[C@H](CC(N)=O)NC(=O)[C@H](Cc3ccccc3)NC(=O)[C@H](C)NC(=O)[C@H](C)NC(=O)[C@H](CC(=O)O)NC(=O)[C@H](CC(=O)O)NC1=O)NC(=O)[C@H](CC(C)(C)C)NC(=O)[C@H](CC(=O)O)NC2=O (stereo partly drawn) [I-1256, Ac-PL3-Asp-Npg-B5-Asp-Asp-Ala-Ala-Phe-Asn-PyrS1-2C1F-BztA-dThr-NH2]",1470 nM

# These reach a lower IC50. Values come first.
row,IC50,Structure (SMILES)
1,511 nM,"CC(=O)N1CCC[C@]12CC=CCCCC1(CCCC=CCCCOC(=O)N3CC[C@@](C(=O)N[C@@H](Cc4ccsc4)C(=O)N[C@@H](Cc4csc5ccccc45)C(=O)N[C@@H](CCC(N)=O)C(N)=O)(C3)NC(=O)[C@H](CC(N)=O)NC(=O)[C@H](Cc3ccccc3)NC(=O)[C@H](C)NC(=O)[C@H](C)NC(=O)[C@H](CC(=O)O)NC(=O)[C@H](CC(=O)O)NC1=O)NC(=O)[C@H](CC(C)(C)C)NC(=O)[C@H](CO)NC2=O (stereo partly drawn) [I-1222, Ac-PL3-Ser-Npg-B5-Asp-Asp-Ala-Ala-Phe-Asn-PyrS2-3Thi-BztA-Gln-NH2]"
2,389 nM,"CC(=O)N1CCC[C@]12CC=CCCCC1(CCCC=CCCCOC(=O)N3CC[C@@](C(=O)N[C@@H](Cc4ccsc4)C(=O)N[C@@H](Cc4csc5ccccc45)C(=O)N[C@@H](CCC(N)=O)C(N)=O)(C3)NC(=O)[C@H](CC(N)=O)NC(=O)[C@H](Cc3ccccc3)NC(=O)[C@H](C)NC(=O)[C@H](C)NC(=O)[C@H](CC(=O)O)NC(=O)[C@H](CC(=O)O)NC1=O)NC(=O)[C@H](CC(C)(C)C)NC(=O)[C@H](CCC(N)=O)NC2=O (stereo partly drawn) [I-1224, Ac-PL3-Gln-Npg-B5-Asp-Asp-Ala-Ala-Phe-Asn-PyrS2-3Thi-BztA-Gln-NH2]"
3,305 nM,"CC(=O)N1CCC[C@]12CC=CCCCC1(CCCC=CCCCOC(=O)N3CC[C@@](C(=O)N[C@@H](Cc4ccsc4)C(=O)N[C@@H](Cc4csc5ccccc45)C(=O)N[C@@H](CCC(N)=O)C(N)=O)(C3)NC(=O)[C@H](CC(C)C)NC(=O)[C@H](Cc3ccccc3)NC(=O)[C@H](C)NC(=O)[C@H](C)NC(=O)[C@H](CC(=O)O)NC(=O)[C@H](CC(=O)O)NC1=O)NC(=O)[C@H](CC(C)(C)C)NC(=O)[C@H](CCC(N)=O)NC2=O (stereo partly drawn) [I-1225, Ac-PL3-Gln-Npg-B5-Asp-Asp-Ala-Ala-Phe-Leu-PyrS2-3Thi-BztA-Gln-NH2]"
4,100 nM,"CC(=O)N1CCC[C@]12CC=CCCCC1(CCCC=CCCCOC(=O)N3CC[C@@](C(=O)N[C@@H](Cc4ccsc4)C(=O)N[C@@H](Cc4csc5ccccc45)C(=O)N[C@@H](CCC(N)=O)C(N)=O)(C3)NC(=O)[C@H](CC(N)=O)NC(=O)[C@H](Cc3ccccc3)NC(=O)[C@H](C)NC(=O)[C@H](C)NC(=O)[C@H](CC(=O)O)NC(=O)[C@H](CC(=O)O)NC1=O)NC(=O)[C@H](CC(C)(C)C)NC(=O)[C@H](CCO)NC2=O (stereo partly drawn) [I-1228, Ac-PL3-Hse-Npg-B5-Asp-Asp-Ala-Ala-Phe-Asn-PyrS2-3Thi-BztA-Gln-NH2]"
5,134 nM,"CC(=O)N1CCC[C@]12CC=CCCCC1(CCCC=CCCCOC(=O)N3CC[C@@](C(=O)N[C@@H](Cc4ccsc4)C(=O)N[C@@H](Cc4csc5ccccc45)C(=O)N[C@@H](CCC(N)=O)C(N)=O)(C3)NC(=O)[C@H](CC(C)C)NC(=O)[C@H](Cc3ccccc3)NC(=O)[C@H](C)NC(=O)[C@H](C)NC(=O)[C@H](CC(=O)O)NC(=O)[C@H](CC(=O)O)NC1=O)NC(=O)[C@H](CC(C)(C)C)NC(=O)[C@H](CCO)NC2=O (stereo partly drawn) [I-1229, Ac-PL3-Hse-Npg-B5-Asp-Asp-Ala-Ala-Phe-Leu-PyrS2-3Thi-BztA-Gln-NH2]"
6,82 nM,"CC(=O)N1CCC[C@]12CC=CCCCC1(CCCC=CCCCOC(=O)N3CC[C@@](C(=O)N[C@@H](Cc4ccccc4Cl)C(=O)N[C@@H](Cc4csc5ccccc45)C(=O)N[C@H](CO)CC(C)C)(C3)NC(=O)[C@H]([C@@H](C)O)NC(=O)[C@H](Cc3ccccc3)NC(=O)[C@H](C)NC(=O)[C@H](C)NC(=O)[C@H](CN(CC(=O)O)CC(F)(F)F)NC(=O)[C@H](CC(=O)O)NC1=O)NC(=O)[C@H](CC(C)(C)C)NC(=O)[C@H](CC(=O)O)NC2=O (stereo partly drawn) [I-1243, Ac-PL3-Asp-Npg-B5-Asp-TfeGA-Ala-Ala-Phe-Thr-PyrS2-2C1F-BztA-Leuo1]"
7,11 nM,"CC(=O)N1CCC[C@]12CC=CCCCC1(CCCC=CCCCOC(=O)N3CC[C@@](C(=O)N[C@@H](Cc4ccsc4)C(=O)N[C@@H](Cc4csc5ccccc45)C(=O)N[C@@H](CCC(N)=O)C(=O)NCc4ccccc4)(C3)NC(=O)[C@H](CC(N)=O)NC(=O)[C@H](Cc3ccccc3)NC(=O)[C@H](C)NC(=O)[C@H](C)NC(=O)[C@H](CC(=O)O)NC(=O)[C@H](CC(=O)O)NC1=O)NC(=O)[C@H](CC(C)(C)C)NC(=O)[C@H](CC(=O)O)NC2=O (stereo partly drawn) [I-1257, Ac-PL3-Asp-Npg-B5-Asp-Asp-Ala-Ala-Phe-Asn-PyrS2-3Thi-BztA-Gln-NHBn]"
8,48 nM,"C[C@@H]1NC(=O)[C@H](C)NC(=O)[C@H](CC(=O)O)NC(=O)[C@H](CC(=O)O)NC(=O)C2(CCCC=CCCCOC(=O)N3CC[C@@](C(=O)N[C@@H](Cc4ccccc4)C(=O)N[C@@H](Cc4csc5ccccc45)C(=O)N[C@@H](CO)C(N)=O)(C3)NC(=O)[C@H](CO)NC(=O)[C@H](Cc3ccccc3)NC1=O)CCCC=CC[C@]1(CCCN1C(=O)CCCN(C)C)C(=O)N[C@@H](CC(=O)O)C(=O)N[C@@H](CC(C)(C)C)C(=O)N2 (stereo partly drawn) [I-1354, NdiMeButC-PL3-Asp-Npg-B5-Asp-Asp-Ala-Ala-Phe-Ser-PyrS2-Phe-BztA-Ser-NH2]"
